The values below come from US5312831A, “Urethanes and ureas that induce cytokine production” (American Cyanamid Company, priority 1993, dated 1994).

Test [1] deals with bone marrow. Particulars: myelosuppression caused by chemotherapy or radiation; literature; cited from earlier work.
Test [2] deals with CSF. Particulars: literature; cited from earlier work.
The test system of test [3] is neutrophils. The test can be described thus: Neutrophil recovery in 5-FU treated mice. It counts as in vivo, mouse. Particulars: mouse, in vivo. The protocol: (§1) Circulating Neutrophil Assay--Mice are treated with 5-FU (150 mg/kg) and beginning 24 hrs. later, treated daily with the test compound. Mice are bled daily by retroorbital puncture in heparinized capillary tubes. Circulating WBC counts are determined by Coulter counter. Blood smears are stained with Wright-Geimsa solution and the percentage circulating neutrophils determined by differential counting under a microscope.
(§2) 5-Fluorouracil (5-FU) Induced Neutropenia In Mice--Mice are treated ip with 150 mg/kg of the chemotherapy agent 5-FU which induces a severe loss of neutrophils in the peripheral blood 5-6 days later. Twenty-four hrs. after the dose, treatment with the test compounds is initiated. The effect of the test compounds on recovery of neutrophil progenitor cells in the bone marrow is determined by the CFU-GM assay. The recovery of circulating neutrophils is followed by differential staining of the peripheral blood.
*Data from 10 mice/group on day 7 post treatment with 150 mg/kg of 5FU.
Beginning 24 hrs. after 5FU dose, mice were treated daily with test
compound at concentrations indicated. Neutrophil count for normal mice (n
**Mice treated with 5FU and vehicle only.

Test [4] has as its system neutrophils. The test is described as follows: Oral dosing: neutrophil recovery in 5-FU treated mice. Particulars: for Neutrophils/cu. mm.: day 7 post 5FU, 0 dose 67 ± 22. It counts as in vivo, mouse. The method, then: as §1, §2
Groups of 5 mice are treated with 150 mg/kg of 5-FU. One day later, daily oral dosing with test compounds begins and continues for 10 days. […]

In test [5] the test system is neutrophils. The test is described as follows: Neutrophil recovery in 5-FU treated mice. It counts as in vivo, mouse. Particulars: day 8 post 5FU, 0 dose 144 ± 36.
The subject of test [6] is neutrophils. The test is described as follows: Neutrophil recovery in cytoxan treated primates. Format: in vivo, cynomolgous monkeys. To be noted: for Absolute Neutrophil Count/cu. mm. of Blood: Cytoxan + Ex. 32 (50 μg/kg daily s.c.). The method, then: Groups of 4 cynomolgous monkeys are treated on day 1 and day 0 with
cytoxan at 60 mg/kg. Beginning 24 hours after the second cytoxan dose, on
group is treated daily s.c. with 50 μg/kg of test compound and the
other with vehicle (water) only.
*p < 0.05 versus cytoxan only control by Student's t test.

Test [7] relates to IL-6. The test can be described thus: Serum IL-6 production in mice after single s.c. injection (7TD1 bioassay). Format: in vivo, mouse. Particulars: serum 4 h post injection. The method, then: Description of Biological Assays Interleukin 6(IL-6) assay for structure function analysis--Test compounds are dissolved in water and administered subcutaneously in 0.2 ml to deliver a dose of 0.1-10 mg/kg. The less soluble compounds are first dissolved in 100% ethanol and then brought to the appropriate concentration in water. Four hours post injection, the mice are bled and the serum is retrieved. The IL-6 dependent cell line 7TDl is used to assay serial dilutions of sera for IL-6 content. 7TDl cells (1×10^4) are placed in microtiter wells and incubated at 37° C. for 72 hours with standard recombinant mouse IL-6 or with dilutions of serum to be tested. Over the last 6 hours, the cells are pulsed with ^3 H-Tdr (μci). Cells are then harvested and the degree of proliferation determined by the uptake of ^3 H-Tdr as measured by liquid scintillation spectrometry. The concentration of IL-6 in serum is calculated from standard curves utilizing recombinant IL-6 from R&D Systems Inc. and are reported in units of IL-6 activity as defined by the manufacturer.

Test [8] deals with CSF. The test can be described thus: Serum colony stimulating factor (CSF) assay in mice. Format: in vivo, mouse. Particulars: serum 4 hours after injection. The method, then: Colony forming assays Granulocyte-Macrophage (CFU-GM)--Mice are treated with 150 mg/kg of 5-Fu and treatment with test compound begins 24 hrs. later. On consecutive days, mice are killed by cervical dislocation and the femurs removed under sterile conditions. Femurs are flushed with 1 ml of ice cold medium (Iscove's supplemented with 20% FCS, 1% penicillin-streptomycin, 1% glutamine and 5×10^-5 M 2-mercaptoethanol). Bone marrow cells (5×10^5) are then plated in 12×75 mm tissue culture plates in 3 ml of warm ararose (3%) in Iscove's medium with 100 Units/ml of recombinant mouse GM-CSF purchased from Genzyme (Boston, Mass.). Plates are incubated for 7 days at 37° C. in 5% CO2. After 7 days, colonies of 50 cells or greater are enumerated under a dissecting microscope.
Bone marrow cells are prepared as described above for the CFU-GM assay. The cells are then incubated in soft agar with an 0.3% final concentration of serum taken from mice 4 hours after injection with test compounds. After 7 days of incubation at 37° C., the number of colony forming (CFU) cells per 10^5 plated bone marrow cells is determined by counting colonies of more than 50 cells under a dissecting microscope. The data are reported as CFU/10^5 bone marrow cells.

In test [9] the test system is bone marrow progenitor cells. The test can be described thus: Delta assay: expansion of bone marrow progenitor cells in vitro, with c-kit ligand (KL). It counts as cell-based, mouse. Particulars: KL alone, 7 day in vitro incubation; medium alone 0.
Protocol: Delta Assay--Mice are treated with a single dose of 5-FU (150 mg/kg ip). Twenty-four hours later, bone marrow cells are removed and split into 2 aliquots. […] After 14 days, the number of colonies is determined (CFU-1). A second aliquot of cells is placed in liquid culture with single growth factors or drugs or combinations of each to assess the ability of these agents to expand the colony forming cell pool. After 7 days in liquid culture, these cells are harvested and plated in soft agar with IL-1 and GM-CSF as with the first aliquot. After 14 days the number of colonies in the second aliquot is determined (CFU-2). The ratio or delta is calculated as CFU-2/CFU-1 and this ratio is used to ascertain the ability of the growth factors and/or drugs used in the liquid phase to induce growth of the colony forming cells (CFU) or differentiation of pre-CFU to CFU.
Bone marrow cells from 5-FU treated mice are used to enrich for early progenitor cells. The cells are split into 2 aliquots as described in the methods section for the "delta assay." The fold increase is determined by measuring the effect of a 7 day in vitro incubation of the cells with tissue culture medium plus test compound and/or growth factor KL on colony forming dells (CFU). The number of CFUs are then compared with colony formation of the fresh bone marrow cells that were not incubated in vitro to determine the fold increase. Test compound is used in vitro at 0.5 μg/ml.

Turning to pimelautide, the “bone marrow restoration after myelosuppression (in words)” value in test [1] was “can aid in bone marrow restoration”. In test [2], the “formation of CSF (in words)” value is recorded as “appear to induce the formation of CSF”.

muroctasin: in test [1], the “bone marrow restoration after myelosuppression (in words)” value is “can aid in bone marrow restoration”. Also, the “formation of CSF (in words)” value in test [2] is “appear to induce the formation of CSF”.

Turning to `CCCCCCC(=O)N[C@H](COC(=O)N[C@@H](CCC[C@@H](N)C(=O)O)C(=O)N[C@H](C)C(=O)O)C(=O)O` [Example 32, (R)-N-[(R)-6-carboxy-N^2-[[2-carboxy-2-[(1-oxoheptyl)amino]ethoxy]carbonyl]-L-lysyl]-D-Alanine], the “neutrophil recovery in 5-FU treated mice (in words)” value in [3] is “induce neutrophil recovery in 5-FU treated mice”. In addition, the Neutrophils/cu. mm. in [4] (1 mg/kg daily oral) is 547 ± 232 /cu. mm; in test [4] (10 mg/kg daily oral), 1844 ± 814 /cu. mm; in [5] (100 μg/kg daily) it was 982 ± 150 /cu. mm; in [5] (1000 μg/kg daily), 1892 ± 293 /cu. mm. In addition, the “neutrophil recovery in 5-FU treated mice when given orally (in words)” value in test [4] (oral) is “active in accelerating neutrophil recovery”. The “Absolute Neutrophil Count/cu. mm. of Blood” value in [6] (day 0 after cytoxan, cytoxan only 3640 ± 1058) is recorded as 3554 ± 1194 /cu. mm. of Blood; in [6] (day 1 after cytoxan, cytoxan only 4900 ± 971) it was 7849 ± 1592 /cu. mm. of Blood; in test [6] (day 2 after cytoxan, cytoxan only 2689 ± 156) it was 4679 ± 867 /cu. mm. of Blood; in test [6] (day 3 after cytoxan, cytoxan only 1935 ± 126), 1080 ± 264 /cu. mm. of Blood; in test [6] (day 4 after cytoxan, cytoxan only 1442 ± 344), 370 ± 171 /cu. mm. of Blood; in test [6] (day 5 after cytoxan, cytoxan only 856 ± 295), 455 ± 208 /cu. mm. of Blood. Also, the “Absolute Neutrophil Count/cu. mm. of Blood” value in test [6] (day 6 after cytoxan, cytoxan only 1009 ± 292) was 518 ± 218 /cu. mm. of Blood; in test [6] (day 7 after cytoxan, cytoxan only 852 ± 301) it was 1304 ± 1046 /cu. mm. of Blood; in [6] (day 8 after cytoxan, cytoxan only 542 ± 233), 1596 ± 1000 /cu. mm. of Blood; in test [6] (day 9 after cytoxan, *p < 0.05 versus cytoxan only 441 ± 194) it was 2041 ± 423 /cu. mm. of Blood; in test [6] (day 10 after cytoxan, cytoxan only 1244 ± 509) it was 3506 ± 1130 /cu. mm. of Blood; in [6] (day 11 after cytoxan, cytoxan only 2053 ± 1002), 4576 ± 673 /cu. mm. of Blood. The “Absolute Neutrophil Count/cu. mm. of Blood” value in test [6] (day 12 after cytoxan, cytoxan only 1885 ± 678) is listed as 3761 ± 1394 /cu. mm. of Blood; in [6] (day 13 after cytoxan, cytoxan only 3502 ± 2297) it was 3751 ± 1278 /cu. mm. of Blood; in test [6] (day 14 after cytoxan, cytoxan only 3816 ± 1674), 3106 ± 520 /cu. mm. of Blood. Moreover, the “recovery of neutrophils in cytoxan treated primates (in words)” value in test [6] (monkey, in vivo) was “accelerates the recovery of neutrophils”. In addition, the “recovery to control levels” value in test [6] (versus a day 10 recovery for the cytoxan only group) was at most 7 days. The figures for the IL-6 in test [7] (0.1 mg/kg s.c.) and in test [7] (1.0 mg/kg s.c.) were 1340 ± 134 U/ml and 1797 ± 284 U/ml, respectively. The “CSF production, CFU/100,000 Bone Marrow Cells” value in [8] (0.1 mg/kg) is listed as 154 ± 5 CFU/100,000 Bone Marrow Cells; in [8] (1.0 mg/kg), 137 ± 15 CFU/100,000 Bone Marrow Cells.

As to “KL: hemopoietic growth factor c-kit ligand (KL)”, the “Fold Increase in CFU” value in test [9] is on record as 66 fold.
